Test: Metabolic excretion study (urine and feces collection in metabolic cages) of 177Lu-labelled human IgG conjugates
Type: in vivo, mice (normal CD-1 or athymic CD-1 nude)
Conditions: mice, intravenous, 7 day period; tested as [177Lu]-HuMIgG conjugates
Protocol: Groups of 4 or 5 mice (normal CD-1 or athymic CD-1 nude) were injected intravenously with approximately 15 microcuries of radiolabelled test compound. Test compounds with various linkers were synthesized and radiolabelled with lutetium-177. For pharmacokinetic studies, animals were sacrificed at specific time points, and blood and tumor (when applicable) were analyzed for total radioactivity. For metabolism studies, animals were placed in metabolic cages (4-5 per cage) for urine and feces collection every 24 hours for up to 7 days. The radioactive content of urine and feces samples was quantified and converted to total urine or feces output based on weight. Excretion profiles for urine, feces, or total excretion (urine+feces) were generated by plotting cumulative % injected dose (%ID) over time.
The human IgG preparation used consisted of a purified mixture of all IgG isotypes (IgG1-4).

Structure (SMILES)	total excretion of radioactivity compared to Compound A-HuMIgG
O=C(O)CN1CCN(CC(=O)O)CCN(C(CCC(=O)NCCCCCCCCCCC(=O)Oc2c(F)c(F)cc(F)c2F)C(=O)O)CCN(CC(=O)O)CC1 (centres unmarked) [Compound B, 4-{[11-oxo-11-(2,3,5,6-tetrafluorophenoxy)undecyl]carbamoyl}-2-[4,7,10-tris(carboxymethyl)-1,4,7,10-tetraazacyclododecan-1-yl]butanoic acid]	increased the amount total excretion of radioactivity
O=C(O)CN1CCN(CC(=O)O)CCN(C(CCC(=O)NCCOCCOCCOCCC(=O)Oc2c(F)c(F)cc(F)c2F)C(=O)O)CCN(CC(=O)O)CC1 (centres unmarked) [Compound C, 4-{[2-(2-{2-[3-oxo-3-(2,3,5,6-tetrafluorophenoxy)propoxy]ethoxy}ethoxy)ethyl]carbamoyl}-2-[4,7,10-tris(carboxymethyl)-1,4,7,10-tetraazacyclododecan-1-yl]butanoic acid]	increased the amount total excretion of radioactivity
